According to patent publication US4250162A, “Protein binding method” (priority 1979, dated 1981):
Where “and” joins values, the source holds several entries; their conditions need not be identical. Equal values may be shown once.

Legend:
[1] = system: thyroxine rabbit antiserum; test: Effect of organic solvents on antiserum-coated polypropylene tubes: residual binding of radioiodinated tracer, thyroxine antiserum; conditions: tracer bound after solvent 3 hours at 50° C., tracer 45 minutes at 37° C.
Protocol: (§1) 1 ml of petroleum ether, benzene, ether, ethyl acetate or acetone was added to a selection of cortisol, thyroxine, diphenylhydantoin and estriol rabbit antiserum-coated polypropylene tubes. The solvent level in the tubes was sufficient to immerse the antiserum coated region at the bottom of the tubes. The solvents were equilibrated with atmospheric water vapor. The solvent-containing tubes were then incubated for 3 hours at 50° C. The excess solvent was poured off and the tubes were left overnight to allow the residual solvent to evaporate. Three sets of control tubes were prepared. One set was treated with water in the same manner as the organic solvents, while another set was heated in air for the same period as the liquid-treated tubes. A final set of tubes served as an untreated control. The residual capacity of the antiserum-coated tubes to bind the respective radioiodinated tracers was determined by adding a 1 ml solution of the tracer containing 0.01 μCi to each tube containing an antiserum coating specific for that tracer, incubating for 45 minutes at 37° C., carefully decanting the tracer solution and counting the radioactivity bound to the tubes. The percent binding was calculated by dividing the bound counts by the total counts added.

[2] = system: diphenylhydantoin rabbit antiserum; test: Effect of organic solvents on antiserum-coated polypropylene tubes: residual binding of radioiodinated tracer, diphenylhydantoin antiserum; conditions: tracer bound after solvent 3 hours at 50° C., tracer 45 minutes at 37° C.
Protocol: as §1

[3] = system: cortisol rabbit antiserum; test: Effect of organic solvents on antiserum-coated polypropylene tubes: residual binding of radioiodinated tracer, cortisol antiserum; conditions: tracer bound after solvent 3 hours at 50° C., tracer 45 minutes at 37° C.
Protocol: as §1

[4] = system: rabbit anti-cortisol serum; test: Competitive radioimmunoassay of cortisol in antiserum-coated plastic tubes (125I-cortisol tracer); assay type: binding
Protocol: Urine samples are prepared for extraction by adding 200 microliters of a well mixed 24-hour urine sample to each of two disposable glass test tubes, one marked "S" and the other "E". The "E" tube is to be used to determine the efficiency of cortisol extraction from the sample. 10 microliters of cortisol standard serum (60 μg%) are mixed with the contents of the "E" tube, and 1.0 ml of chilled methylene chloride is then added to all tubes. The tubes are capped and their contents agitated to aid in the extraction of cortisol into the methylene chloride layer. After separation of the organic phase, duplicate 100 microliter aliquots of the bottom (methylene chloride) layer of each "S" and "E" tube are carefully removed and added to corresponding plastic test tubes coated with rabbit anti-cortisol serum on their lower inner surfaces, also correspondingly labeled "S" and "E". The methylene chloride is then evaporated from the four plastic test tubes by passing a stream of dry air or nitrogen into the tubes or by a mild warming of the extract to about 37° C. The tubes containing dry cortisol residue as prepared above are then assayed as follows.
A set of plastic test tubes coated with rabbit anti-cortisol serum is numbered 1-12. The "S" and "E" tubes from the preparatory steps above are numbered 13-14 and 15-16, respectively. 0.01 ml of the reagents shown in Table 1 below are added to the designated tubes. The cortisol serum blank which is added to each "S" and "E" tube ensures that the protein content of all tubes is equal.
1.0 ml of ^125 I-Cortisol 3-(0-carboxymethyl)oxime-L-tyrosine in pH 7.0-7.2 phosphate buffered saline having an activity of about 0.033 μCi/ml is added to each tube with gentle mixing. All tubes are incubated in a constant temperature water bath for 45 minutes at 37° C. The contents are removed from the tubes by aspirating or decanting and the tubes counted in a gamma counter with the window suitably adjusted for iodine-125.

estriol rabbit antiserum = test: Effect of organic solvents on antiserum-coated polypropylene tubes: residual binding of radioiodinated tracer, estriol antiserum; conditions: tracer bound after solvent 3 hours at 50° C., tracer 45 minutes at 37° C.
Protocol: as §1

antitestosterone = test: Standard curve for testosterone in antitestosterone-coated polypropylene tubes; assay type: binding; conditions: serum standards 0.1, 0.3, 1, 3 and 10 ng testosterone/ml, ethyl acetate extraction; 45 minutes at 37° C.; semi-logarithmic plot
Protocol: 0.6 ml of serum standards containing 0.1, 0.3, 1, 3 and 10 ng testosterone/ml were mixed with 3 ml of ethyl acetate. The phases were allowed to separate and 0.5 of the ethyl acetate layer was added to each of duplicate antitestosterone-coated tubes. After the ethyl acetate was evaporated under a stream of nitrogen, 1 ml of phosphate buffered saline at pH 7.4 was added to each tube and the testosterone residue dissolved. Five minutes later 0.1 ml of ^125 I-labeled testosterone tracer was added to each tube. After incubation for 45 minutes at 37° C., the solution was aspirated from each tube and the bound radioactivity determined in conventional fashion. […] The plot was satisfactory for use in the assay of testosterone unknowns.

SMILES	% Binding [1]	% Binding [2]	% Binding [3]	% Binding (estriol rabbit antiserum)	further results
CC(C)=O [Acetone, acetone]	36%	43%	55%	–	–
c1ccccc1 [Benzene, benzene]	52%	34%	56%	–	–
C[C@]12CCC(=O)C=C1CC[C@@H]1[C@@H]2[C@@H](O)C[C@@]2(C)[C@H]1CC[C@]2(O)C(=O)CO [Cortisol, cortisol]	–	–	–	–	CPM Bound ([4]; Cortisol Serum Standard, 1.0 μg%, 100 pg/0.01 ml, 45 minutes at 37° C.): 26,030 CPM and 25,305 CPM; CPM Bound ([4]; Cortisol Serum Standard, 3.0 μg%, 300 pg/0.01 ml, 45 minutes at 37° C.): 22,083 CPM and 21,629 CPM; CPM Bound ([4]; Cortisol Serum Standard, 10 μg%, 1000 pg/0.01 ml, 45 minutes at 37° C.): 14,520 CPM and 14,698 CPM; CPM Bound ([4]; Cortisol Serum Standard, 25 μg%, 2000 pg/0.01 ml, 45 minutes at 37° C.): 8,980 CPM and 9,071 CPM; CPM Bound ([4]; Cortisol Serum Standard, 60 μg%, 6000 pg/0.01 ml, 45 minutes at 37° C.): 4,824 CPM and 5,025 CPM; CPM Bound ([4]; urine extract "E" tubes 15-16 (cortisol-spiked), with Cortisol Serum Blank, 0 μg%): 8,009 CPM and 7,526 CPM; CPM Bound ([4]; urine extract "S" tubes 13-14, with Cortisol Serum Blank, 0 μg%): 14,325 CPM and 15,110 CPM
CCOCC [Ether, ether]	41%	33%	55%	38%	–
CCOC(C)=O [Ethyl Acetate, ethyl acetate]	41%	38%	54%	62%	–
C[C@]12CC[C@H]3[C@@H](CCC4=CC(=O)CC[C@@]43C)[C@@H]1CC[C@@H]2O [testosterone]	–	–	–	–	standard curve (bound radioactivity), in words (antitestosterone): virtually straight-line standard curve
